Values of other authors in US12290493B2 (Advanced Respiratory Technologies, Inc., priority 2017, dated 2025).

How the values were obtained:
[1] = system: beta adrenergic receptors
[2] = fraction of the l-epinephrine effect

Row | SMILES | beta adrenergic activity [1] | pressor effect relative to that of l-epinephrine [2]
1 | CNCC(=O)c1ccc(O)c(O)c1 [adrenalone] | little if any beta adrenergic activity | –
2 | CNC[C@H](O)c1ccc(O)c(O)c1 [d-epinephrine] | – | about one-fifteenth
